In ChEMBL document CHEMBL2150930, “Design, synthesis and pharmacological evaluation of novel tacrine-caffeic acid hybrids as multi-targeted compounds against Alzheimer's disease” (Bioorg Med Chem Lett, 2012):
The source made the active and inactive calls. The calls are words filed in the database; no cut-off is given here.

How the values were obtained:
[1] = molecular target: Acetylcholinesterase (Electrophorus electricus) (UniProt O42275); assay: Mixed type inhibition of electric eel AChE using […] as substrate by Lineweaver-Burk plot analysis
[2] = molecular target: Acetylcholinesterase (Electrophorus electricus, UniProt O42275); assay: Inhibition of electric eel AChE using […] as substrate preincubated for 20 mins by Ellman's method
[3] = system: HT-22; assay: Neuroprotective activity in mouse HT22 cells assessed as protection against H2O2-induced cell death at 3 to 30 uM preincubated for 30 mins prior to H2O2 challenge measured after 24 hrs by MTT assay; format: functional, cell-based
[4] = system: HT-22; assay: Cytotoxicity against mouse HT22 cells assessed as cell viability at 30 uM after 24 hrs by MTT assay; format: cell-based; details: ht-22, 24 h
[5] = system: HT-22; assay: Cytotoxicity against mouse HT22 cells at 100 uM after 30 mins by LDH release assay; format: cell-based; details: ht-22, 0.5 h
[6] = system: HT-22; assay: […] against mouse HT22 cells at 100 uM after 30 mins by LDH release assay; format: cell-based; details: ht-22, 0.5 h
[7] = Antioxidant activity against Cu2+-mediated ROS formation in HEPES buffer at pH 7.4 assessed as compound-Cu2+ complex formation at 40 uM after 5 mins by UV-vis spectrophotometric analysis; format: functional
[8] = molecular target: Cholinesterase (Equus caballus, UniProt P81908)
Description: Inhibition of horse serum BuChE using butyrylthiocholine iodide as substrate preincubated for 20 mins by Ellman's method

[9] = system: Radical scavenging activity
Description: Antioxidant activity of the compound assessed as DPPH radical scavenging activity after 60 mins

Sequence of Acetylcholinesterase (O42275 whole entry): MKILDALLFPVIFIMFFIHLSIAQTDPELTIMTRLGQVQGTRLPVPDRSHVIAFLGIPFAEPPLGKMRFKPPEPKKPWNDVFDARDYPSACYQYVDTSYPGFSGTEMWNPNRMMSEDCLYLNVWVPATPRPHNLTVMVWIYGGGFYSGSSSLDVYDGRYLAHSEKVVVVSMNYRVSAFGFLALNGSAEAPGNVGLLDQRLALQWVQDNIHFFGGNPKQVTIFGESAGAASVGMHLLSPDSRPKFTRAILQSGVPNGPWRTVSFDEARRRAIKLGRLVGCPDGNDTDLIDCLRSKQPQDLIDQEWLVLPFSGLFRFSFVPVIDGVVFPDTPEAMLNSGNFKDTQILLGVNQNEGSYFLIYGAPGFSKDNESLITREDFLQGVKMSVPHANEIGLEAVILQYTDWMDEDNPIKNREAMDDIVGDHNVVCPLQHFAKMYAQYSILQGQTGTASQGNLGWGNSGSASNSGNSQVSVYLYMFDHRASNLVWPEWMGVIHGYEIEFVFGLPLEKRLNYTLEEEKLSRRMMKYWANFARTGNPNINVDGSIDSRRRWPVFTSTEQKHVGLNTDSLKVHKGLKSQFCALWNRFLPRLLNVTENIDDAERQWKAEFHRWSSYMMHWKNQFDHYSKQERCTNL
Sequence of Cholinesterase (P81908 whole entry): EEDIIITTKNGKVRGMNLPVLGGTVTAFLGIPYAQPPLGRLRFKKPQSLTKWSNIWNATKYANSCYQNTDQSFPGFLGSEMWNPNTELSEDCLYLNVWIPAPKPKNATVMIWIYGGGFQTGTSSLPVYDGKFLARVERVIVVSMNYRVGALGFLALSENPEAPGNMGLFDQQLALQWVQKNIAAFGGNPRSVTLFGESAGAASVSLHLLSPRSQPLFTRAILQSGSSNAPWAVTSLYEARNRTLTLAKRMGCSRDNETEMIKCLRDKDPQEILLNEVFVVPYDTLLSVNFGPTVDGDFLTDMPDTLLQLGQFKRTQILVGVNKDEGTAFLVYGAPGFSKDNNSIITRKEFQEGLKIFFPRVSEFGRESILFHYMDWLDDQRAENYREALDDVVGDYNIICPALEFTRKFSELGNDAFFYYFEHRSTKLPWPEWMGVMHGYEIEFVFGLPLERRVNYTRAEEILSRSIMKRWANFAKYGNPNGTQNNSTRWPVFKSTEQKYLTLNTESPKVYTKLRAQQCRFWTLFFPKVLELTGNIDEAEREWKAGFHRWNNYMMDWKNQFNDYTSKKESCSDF
Sequence of Acetylcholinesterase (Electrophorus electricus) (O42275 24-633 limits assumed): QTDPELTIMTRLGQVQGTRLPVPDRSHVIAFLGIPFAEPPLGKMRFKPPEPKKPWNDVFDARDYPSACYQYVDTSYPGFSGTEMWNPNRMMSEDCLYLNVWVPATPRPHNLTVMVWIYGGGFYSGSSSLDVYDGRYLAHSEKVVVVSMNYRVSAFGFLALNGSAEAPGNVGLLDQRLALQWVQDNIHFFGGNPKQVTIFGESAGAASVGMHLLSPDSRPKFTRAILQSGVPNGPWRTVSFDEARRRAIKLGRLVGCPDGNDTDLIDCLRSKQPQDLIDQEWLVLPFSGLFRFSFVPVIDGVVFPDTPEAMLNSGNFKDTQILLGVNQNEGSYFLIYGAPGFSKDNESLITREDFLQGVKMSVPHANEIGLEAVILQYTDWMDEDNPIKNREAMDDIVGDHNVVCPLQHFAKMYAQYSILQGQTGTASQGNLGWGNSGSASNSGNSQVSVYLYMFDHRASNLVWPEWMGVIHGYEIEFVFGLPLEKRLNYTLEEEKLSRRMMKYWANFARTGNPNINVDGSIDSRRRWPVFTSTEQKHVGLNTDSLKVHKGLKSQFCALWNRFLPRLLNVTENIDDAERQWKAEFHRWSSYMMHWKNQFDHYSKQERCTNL

| SMILES | inhibition [1] | IC50 [2] | Activity [3] | Activity [4] | Activity [5] | Activity [6] | Activity [7] | IC50 [8] | IC50 [9] |
| --- | --- | --- | --- | --- | --- | --- | --- | --- | --- |
| O=C(/C=C/c1ccc(O)c(O)c1)NCCCNc1c2c(nc3cc(Cl)ccc13)CCCC2 | Active | 0.3 µM | Active | Toxic | Non-toxic | Toxic | Active | 29.5 µM | 4.8 µM |
| O=C(/C=C/c1ccc(O)c(O)c1)NCCCCCCNc1c2c(nc3cc(Cl)ccc13)CCCC2 |  | 6.3 µM | Active | Toxic | Non-toxic |  |  | 3.8 µM | 4.7 µM |
| O=C(/C=C/c1ccc(O)c(O)c1)NCCCCCCNc1c2c(nc3ccccc13)CCCC2 |  | 1.9 µM |  |  |  |  |  | 3.9 µM | 10.4 µM |
| O=C(/C=C/c1ccc(O)c(O)c1)NCCNc1c2c(nc3ccccc13)CCCC2 |  | 1.8 µM |  |  |  |  |  | 2.3 µM | 14.1 µM |
| O=C(/C=C/c1ccc(O)c(O)c1)NCCNc1c2c(nc3cc(Cl)ccc13)CCCC2 |  | 1 µM | Active |  |  |  |  | 5.5 µM | 9.7 µM |
| O=C(/C=C/c1ccc(O)c(O)c1)NCCCNc1c2c(nc3ccccc13)CCCC2 |  | 0.0088 µM |  |  |  |  |  | 0.0837 µM | 11.1 µM |
